In brackets after ≈: the same amount, converted by molar mass. Where two headings read alike, the source gives them in different places.
What was measured:
[1] = molecular target: S. aureus cystathionine-γ-lyase (bCSE) (Staphylococcus aureus, UniProt A0A0H3K724); assay: IC50 assay: inhibition of H2S production by purified bCSE, WSP5 fluorescent probe; assay type: biochemical
Description: (§1) Fluorescence spectrophotometry-based inhibitory activity toward purified bCSE and hCSE was measured in a 96-well nonbinding black plate (Greiner, Kremsmunster, Austria) at 100 μL of the reaction mixture per well. bCSE and hCSE (0.02 μM) were preincubated in a thermoshaker (Biosan, Riga, Latvia) (30 °C, 300 rpm) for 40 min in 50 mM sodium phosphate buffer (pH 8.0), supplemented with 10 μM pyridoxal 5′-phosphate (Sigma-Aldrich, St. Louis, MO, USA), 0.1% of Tween 20 (Sigma-Aldrich, St. Louis, MO, USA), and 1.2 μM Washington State Probe-5 (Cayman Chemical, Ann Arbor, MI, USA) (excitation: 500 nm, emission: 530 nm) at different concentrations of a tested inhibitor. The reaction was initiated by the addition of 100 μM L-cysteine (TCI, Chennai, Tamil Nadu, India) in 50 mM sodium phosphate buffer pH 8.0 to the reaction mixture, and the enzymatic activity was monitored for 12 h using a CLARIOstar Plus instrument (BMG LABTECH GmbH, Ortenberg, Germany). The 100 µM L-cysteine concentration used in the experiments corresponds to the maximal reported intracellular concentration in bacteria. The data were normalized to the positive and negative controls, and IC50 values were obtained by fitting to a four-parameter sigmoidal curve (inhibitor vs. response, variable slope model) in GraphPad Prism 8 software (GraphPad by Dotmatics, Boston, MA, USA). Each experiment was conducted with 2–3 technical replicates. IC50 values were means of at least two independent experiments.
(§2) For the production of S. aureus cystathionine-γ-lyase (bCSE) and of human cystathionine-γ-lyase (hCSE), plasmids pSUMO:saCSE (Addgene # 54336) and pNIC28-Bsa4 (Addgene # 42365) were employed. Cultivation of a competent E. coli cell strain (Thermo Fisher Scientific, Waltham, MA, USA), transformed with a target plasmid, was carried out on a selective solid medium with kanamycin. Bacterial cells harboring the plasmid vector were cultured at 37 °C and 180 rpm until OD600 = 0.65. Then, isopropyl β-D1-thiogalactopyranoside (IPTG) was added to a final concentration of 1 mM. To obtain bCSE, the cells were cultured for 3.5 h at 37 °C; to obtain hCSE, the cells were cultured for 18–20 h at 25 °C. After centrifugation, cells were resuspended in a buffer composed of 50 mM Tris–HCl, at a pH of 8.0, and 300 mM sodium chloride. After that, the cells were lysed by ultrasonication, with a pulse duration of 15 s and an interval between pulses of 15 s. The amplitude of the ultrasonic vibrations was 50% of the maximum. After lysis, samples were centrifuged for 15 min (20,000× g at 4 ℃). The pH of the supernatant obtained after the centrifugation was adjusted to 7.5 by the addition of a 1 M solution of Tris–OH. Then, the test sample was subjected to filtration through a polyethersulfone membrane with a pore diameter of 0.22 μm.

[2] = molecular target: T1, human cystathionine-γ-lyase (hCSE) (Homo sapiens, UniProt P32929); assay: IC50 assay: inhibition of H2S production by purified hCSE, WSP5 fluorescent probe; assay type: biochemical
T1 construct: His6-TEV (N, cleaved yes); host or cells: E. coli
Description: as §1, §2

HEK293 cells = assay: HEK293 cytotoxicity assay (Alamar Blue); assay type: cell-based; settings: HEK293, 72 h
Description: The HEK 293 cell line was obtained from the European Collection of Authenticated Cell Cultures (ECACC, cat. # 85120602, Salisbury, UK). The cells were grown in a monolayer culture in Dulbecco’s Modified Eagle’s Medium (DMEM) (PanEco, Moscow, Russia), supplemented with 2 mM L-glutamine, 1% of a penicillin/streptomycin solution (Capricorn Scientific, Ebsdorfergrund, Germany), and 10% of heat inactivated fetal bovine serum (HyClone, Cytiva, Marlborough, MA, USA) in a humidified atmosphere containing 5% of CO2 at 37 °C (Binder, Germany). For the assay, HEK 293 cells were seeded in a 96-well plate (Corning, NY, USA) in 100 μL of the complete culture medium, at a final density of 2 × 10^3 cells/well, and were cultured for 24 h for proper attachment. Subsequently, the medium was removed, and the cells were exposed to a tested inhibitor at different concentrations for 72 h in 100 μL of the fresh complete culture medium. The sensitivity of the cells to the compounds was detected using the vital dye Alamar Blue (Invitrogen, San Diego, CA, USA). The Alamar Blue assay was performed according to the procedure described by O’Brien et al.. After incubation with the tested bCSE inhibitors, 10 μL of the Alamar Blue reagent was added into each well, the cell culture plates were returned to the humidified incubator, and the fluorescence was read after 3 h. The plates were exposed to an excitation light of 545 nm wavelength, and emission at 600 nm was measured on the CLARIOstar Plus (BMG LABTECH GmbH, Ortenberg, Germany). To determine half-maximal cytotoxic concentration (CC50), a four-parameter sigmoidal curve model (GraphPad Prism 8 software) was fitted to the measurement data.

[3] = Metabolic stability in rat liver microsomes; settings: for microsomal CLint at 1 µM / half-life at 1 µM: rat, microsomes; for microsomal CLint at 1 µM: pH 7.4, CLint; for half-life at 1 µM: pH 7.4, t1/2, rat liver microsomes
Description: The metabolic stability of a test compound was evaluated based on the rate of disappearance during incubation with rat liver microsomes. […] The natural logarithm of a peak area ratio (compound peak area/internal standard peak area) was plotted against incubation time, and the slope of the line was determined.

S. aureus ATCC 25923 = assay: MIC of antibiotics alone and with potentiators, broth microdilution; settings: S. aureus ATCC 25923, no potentiator
Description: (§3) Overnight (ON) culture of a specific strain was grown in the liquid Luria–Bertani nutrient medium (LB broth, BD Difco) for 18 h at 37 °C, with agitation at 180 rpm using an Innova 44R orbital shaker (Eppendorf, Hamburg, Germany). After a certain period, 50 µL of the ON culture was transferred into 5 mL of the LB medium and grown for 3 h at 37 °C with agitation. Growth in the liquid medium was assessed by means of turbidity of the suspension, measured using a Densi-La-Meter II densitometer (Erba Lachema s.r.o., Brno, Czech Republic). Then, the bacterial suspension was diluted to the concentration 10^6 cells/mL with sterile LB and used as a seed culture [38, 39].
(§4) For the assessment of MICs, 96-well microtiter plates were utilized at 200 µL of a medium per well. Each well was filled with 100 µL of the seed culture. After that, 10 µL of a solution of each tested synthetic compound (potentiators) was added into each experimental well. Finally, 90 µL of twofold serial dilutions of an antibiotic in a sterile LB was added into individual wells.
(§5) As a positive control, we set up wells with 100 µL of the bacterial culture and 100 µL of the sterile LB medium. […] Negative-control wells contained 200 µL of the sterile medium. The plates were incubated in a thermostat for 18–20 h at 37 °C. The bacterial growth was assessed as optical density at 600 nm on a CLARIOstar microplate reader (BMG LABTECH GmbH, Ortenberg, Germany)).

[4] = system: S. aureus INA00761 (MRSA); assay: as above; settings: no potentiator
Description: as §3, §4, §5

[5] = LogD7.4, miniaturized shake flask method; assay type: physicochemical; settings: 1-octanol / 100 mM sodium phosphate buffer, pH 7.4, 1-octanol / 100 mM sodium phosphate buffer pH 7.4; read-out: Measured logD7.4
Description: Coefficients of distribution between 1-octanol and 100 mM sodium phosphate buffer (pH 7.4) were determined by the miniaturized shake flask method. Namely, 5 μL of a 10 mM compound’s solution in DMSO was dissolved in 245 μL of 1-octanol saturated with phosphate buffer. Next, 500 μL of phosphate buffer saturated with 1-octanol was added, followed by mixing for 3 h. […] After that, 50 μL of the octanol phase (top layer) was aspirated and diluted with 500 μL of 1-octanol saturated with phosphate buffer. Then, the remaining octanol phase was removed; 50 μL of the buffer layer was aspirated and diluted with 500 μL of phosphate buffer saturated with 1-octanol. Both the octanol and phosphate buffer samples were analyzed by LC–MS/MS. The distribution coefficient was determined according to the following equation: logD7.4 = log10 (peak area for octanol sample/peak area for buffer sample). […] All compounds were tested in triplicate.

Caco-2 cell permeability = assay type: in vitro ADME; settings: human
Description: The culture medium consisted of high-glucose DMEM containing 10% of fetal bovine serum, 4 mM L-glutamine, 1% of a solution of nonessential amino acids (PanEco, Moscow, Russia), 100 U/mL penicillin, and 100 μg/mL streptomycin. The cells were maintained for 21 days at 37 °C and 5% CO2. The medium was refreshed every 3 days. A Lucifer yellow rejection assay was applied to determine cell monolayer integrity. […] The Lucifer yellow rejection value was calculated using the equation: LY % rejection = 100*(1−FIb/FIa), where FIb is the fluorescence in the basolateral compartment and FIa is the fluorescence in the apical compartment. […] Both apical-to-basolateral (AB) and basolateral-to-apical (BA) transport were assessed. For apical-to-basolateral transport, 0.3 mL of a test compound solution was added to the apical side, and 0.8 mL of HBSS with 0.5% of BSA was added to the basolateral side. For basolateral-to-apical transport, 0.8 mL of a test compound solution was added to the basolateral side and 0.3 mL of HBSS with 0.5% of BSA was added to the apical side. The Caco-2 cell monolayers were then incubated for 2 h at 37 °C. The pH values of the apical and basolateral compartments were 7.4. […] The supernatant was transferred to a vial and analyzed by liquid chromatography coupled with tandem MS (LC–MS/MS). The AB (or BA) apparent permeability coefficients (Papp, 10^–6 cm/s) were calculated according to the following formula [40, 41]: Papp = (V × ∆C)/(∆t × A × C0), where V is the volume of the receiver compartment (cm^3), C0 is the initial drug concentration in the donor compartment (μM), ∆C is the concentration in the receiver compartment (μM), ∆t is the incubation time (s), and A is the surface area of the cell monolayer (cm^2). An efflux ratio was calculated by dividing Papp (BA) by Papp (AB). All compounds were tested in duplicate.

in vitro = in vitro ADME; settings: human, plasma
Description: Plasma protein binding was assessed using RED device inserts with built-in cellulose acetate dialysis membranes (molecular weight cutoff: 8 kDa). The final concentration of the test compound in human plasma was 5 μM. The samples were prepared by placing 300 μL of human plasma into the plasma compartment of the RED device and 500 μL of phosphate-buffered saline (pH 7.4) into the buffer compartment. The RED device was fixed to a shaker, placed in a CO2 (5%) incubator, and incubated for 6 h at 37 °C. After an equilibration step, 100 μL aliquots were taken from each compartment; 100 μL of plasma was added to the buffer compartment aliquot and 100 μL of buffer was added to the plasma compartment aliquot. After mixing, 600 μL of acetonitrile containing an internal standard was added. […] All compounds were tested in duplicate. Fraction bound fb was determined via the following equation: fb (%) = [1 − (Cb/Cp)] × 100, where Cb is the concentration of an analyte in the buffer compartment (μM), and Cp is the concentration of the analyte in the plasma compartment (μM).

physchem = assay type: physicochemical; settings: for solubility at 2 h: 25 °C, pH 7.4, aqueous buffer, kinetic from dmso stock
Description: A stock solution of a compound (10 mM in DMSO, 10 μL) was added to 990 μL of 100 mM sodium phosphate buffer (pH 7.4) and incubated at 25 °C for 2 h with constant shaking. The suspension was filtered through the PVDF membrane filter (Merck Millipore, Burlington, MA, USA). To 320 µL of the filtrate, 80 µL of acetonitrile was added and mixed. The mixture was transferred to a vial and analyzed by ultra-high-performance liquid chromatography (UHPLC) with UV detection. Concentrations were calculated from a 5-point calibration curve. The calibration range was 1 to 100 μM. The controls were diclofenac and nicardipine. All compounds were tested in triplicate.

T1 sequence (P32929 whole entry): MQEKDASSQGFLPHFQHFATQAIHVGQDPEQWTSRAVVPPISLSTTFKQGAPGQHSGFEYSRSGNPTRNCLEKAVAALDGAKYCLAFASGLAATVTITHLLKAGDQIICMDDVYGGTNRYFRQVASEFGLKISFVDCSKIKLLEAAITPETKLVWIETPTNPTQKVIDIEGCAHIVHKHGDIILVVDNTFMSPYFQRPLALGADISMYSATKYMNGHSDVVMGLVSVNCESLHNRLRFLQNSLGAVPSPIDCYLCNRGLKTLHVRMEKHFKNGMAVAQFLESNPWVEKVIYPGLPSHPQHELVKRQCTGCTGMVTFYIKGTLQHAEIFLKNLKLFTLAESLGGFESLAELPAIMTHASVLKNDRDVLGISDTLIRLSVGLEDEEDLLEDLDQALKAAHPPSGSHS
S. aureus cystathionine-γ-lyase (bCSE), sequence (A0A0H3K724 entry or part of it): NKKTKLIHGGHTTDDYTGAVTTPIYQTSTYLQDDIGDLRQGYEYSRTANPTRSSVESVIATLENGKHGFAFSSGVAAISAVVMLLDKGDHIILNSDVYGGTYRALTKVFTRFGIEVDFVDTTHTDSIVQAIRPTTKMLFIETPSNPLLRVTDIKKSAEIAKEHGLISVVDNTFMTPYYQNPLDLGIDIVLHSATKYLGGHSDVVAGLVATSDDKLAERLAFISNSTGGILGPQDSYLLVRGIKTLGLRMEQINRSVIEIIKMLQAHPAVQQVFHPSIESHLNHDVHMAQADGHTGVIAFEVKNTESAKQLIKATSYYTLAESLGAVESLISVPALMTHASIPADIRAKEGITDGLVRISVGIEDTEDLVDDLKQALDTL

Compound O=C(O)c1ccc2ccn(Cc3cccc4ccccc34)c2c1 [Compound 4a] has an IC50 ([1]; IC50 (uM), bCSE enzymatic IC50, rounded, repeated in Table S13) of 138 µM, an IC50 ([1]; IC50 (uM), bCSE enzymatic IC50, rounded, repeated in Table S14) of 138 µM and an IC50 ([1]; IC50 (uM), bCSE enzymatic IC50, rounded, repeated in Table S15) of 138 µM. The IC50 ([1]; IC50 biochemical assay bCSE, purified bCSE 0.02 μM, 100 μM L-cysteine, WSP5 probe, mean ± SD) was 138 ± 9 µM, the IC50 ([2]; purified hCSE 0.02 μM, 100 μM L-cysteine, WSP5 probe, mean ± SD; read-out: IC50 biochemical assay hCSE) was greater than 500 µM and the CC50 (HEK293 cells) was 392 ± 21.8 µM.
In the case of O=c1ccc2ccc(O)cc2o1 [Umbelliferone], the CLint ([3]; rat liver microsomes, cofactor NADPH, 1 µM) is reported as 8.8 µL/min/mg, the microsomal CLint at 1 µM ([3]; rat liver microsomes, cofactor NADPH) is reported as 8.81 ± 1 µL/min/mg and the microsomal CLint at 1 µM ([3]; rat liver microsomes, cofactor UDPGA) is reported as 180 ± 0.7 µL/min/mg. The half-life at 1 µM ([3]; cofactor NADPH) was 2.64 ± 0.301 h and the half-life at 1 µM ([3]; cofactor UDPGA) was 0.1283 ± 0.0005 h.
For NC[C@H]1O[C@H](O[C@H]2[C@H](O)[C@@H](O[C@H]3O[C@H](CO)[C@@H](O)[C@H](N)[C@H]3O)[C@H](N)C[C@@H]2N)[C@H](O)[C@@H](O)[C@@H]1O [km, kanamycin], the “MIC of antibiotic alone” value (S. aureus ATCC 25923) was 12.5 µg/mL, the “MIC of antibiotic alone” value [4] was “res” and the “MIC of antibiotic alone” value ([4]; listed as kanamycin) was “resistant”.
For O=C([O-])c1cn(Cc2cccc3ccccc23)c2ccccc12.[Na+] [Compound 1c], the “activity toward bCSE (in words)” value [1] was “did not show noticeable activity”, the “activity toward hCSE (in words)” value [2] was “did not show noticeable activity” and the IC50 ([2]; read-out: IC50 biochemical assay hCSE; purified hCSE 0.02 μM, 100 μM L-cysteine, WSP5 probe, mean ± SD) was greater than 500 µM. The CC50 (HEK293 cells) was 308 ± 75.5 µM.
With CC(=O)Nc1ccc(O)cc1 [Paracetamol, reference compound] the logD [5] was 0.29 ± 0.02.
For CC1(C)S[C@@H]2[C@H](NC(=O)[C@H](N)c3ccccc3)C(=O)N2[C@H]1C(=O)O [amp, ampicillin], the “MIC of antibiotic alone” value (S. aureus ATCC 25923) was 0.3 µg/mL, the “MIC of antibiotic alone” value [4] was “res” and the “MIC of antibiotic alone” value ([4]; listed as ampicillin) was “resistant”.
CC(C)NCC(O)COc1cccc2ccccc12 (centres unmarked) [Propranolol, reference compound] showed an efflux ratio at 2 h, 10 μM (Caco-2 cell permeability; Caco-2, Papp (BA) / Papp (AB)) of 1.04, a Papp A→B at 2 h, 10 μM (Caco-2 cell permeability; Caco-2, 10 μM, 2 h, pH 7.4) of 30.2 ± 2.9 ×10⁻⁶ cm/s and a Papp B→A at 2 h, 10 μM (Caco-2 cell permeability; Caco-2, 10 μM, 2 h, pH 7.4) of 31.6 ± 1.1 ×10⁻⁶ cm/s. For the same compound, the Fraction bound fb (in vitro; 6 h, 5 μM, pH 7.4) was 85.8% and the fraction unbound at 6 h, 5 μM (in vitro; pH 7.4, Fraction bound fb) was 0.142.
With O=C(O)Cc1ccccc1Nc1c(Cl)cccc1Cl [Diclofenac sodium] the solubility at 2 h (physchem) was greater than 100 µM.
In the case of COC(=O)C1=C(C)NC(C)=C(C(=O)OCCN(C)Cc2ccccc2)C1c1cccc([N+](=O)[O-])c1 (centres unmarked) [Nicardipine], the solubility at 2 h (physchem) is reported as 5.16 ± 0.23 µM (≈ 2.47 µg/mL) and the Solubility (physchem; 2 h, pH 7.4) is reported as 5.2 µM (≈ 2.49 µg/mL).
For CCn1cc(C(=O)O)c(=O)c2cc(F)c(N3CCNCC3)cc21 [nor, norfloxacin], the “MIC of antibiotic alone” value (S. aureus ATCC 25923) was 2.5 µg/mL and the “MIC of antibiotic alone” value [4] was 10 µg/mL.

Source: PMC10671052, “Naphthyl-Substituted Indole and Pyrrole Carboxylic Acids as Effective Antibiotic Potentiators—Inhibitors of Bacterial Cystathionine γ-Lyase” (International Journal of Molecular Sciences, 2023)
